Measured values taken from publication PMC10046901, “Molecular Analysis of the Superior Efficacy of a Dual Epidermal Growth Factor Receptor (EGFR)-DNA-Targeting Combi-Molecule in Comparison with Its Putative Prodrugs 6-Mono-Alkylamino- and 6,6-Dialkylaminoquinazoline in a Human Osteosarcoma Xenograft Model” (Cells, 2023).

Tests used:
[1] = system: panel of osteosarcoma cells (U2-OS, Saos-2, MG-63, MNNG/HOS, KHOS/NP); assay: Growth inhibition assay across panel of osteosarcoma cell lines; assay type: cell-based; details: for IC50: range over five osteosarcoma cell lines
KHOS/NP = assay: cells; assay type: cell-based; details: Homo sapiens, 120 h, read-out: IC50 growth inhibition
[2] = Body weight / tolerance in xenografted mice; assay type: in vivo, NSG male mice; details: 80 mg/kg oral gavage every other day, 10 doses
Experimental: Animal experiments were executed in accordance with a protocol approved by the McGill Institutional Animal Care Committee (McGill University Health Centre Research Institute and McGill University, Montreal, Canada). Xenografts of the tumors were obtained via unilateral and subcutaneous injection (5 × 10^6 cells in 100 µL of a PBS1x solution) into immunodeficient NSG male mice (N = 28; 8 weeks old; weight = 30 g; Charles River, Canada). The mice were maintained at optimal temperature (24 °C) and relative humidity (50%) on a 12/12-light/dark cycle with free access to water and food. The mice were monitored clinically every day; body weights were recorded and tumor volumes were measured with a caliper using the formula 4/3 π (length/2) (width/2)^2 every other day. Once tumors reached 68 mm^3, the mice were randomly divided into 4 groups: 1 was treated with ZR2002 (N = 7), another was treated with JS84 (N = 7), another was treated with JS61 (N = 7) and the last was treated with a vehicle (N = 7). The mice were treated every other day for 20 days, receiving a total of 10 doses via oral gavage of 200 µL of a ZR2002, JS61 or JS84 solution at a dose of 80 mg/kg body weight or the vehicle (control group). The drugs were dissolved in a solution of 25% of alcohol (Greenfield, Toronto, ON, Canada), 25% of Cremophor (Sigma-Aldrich, St. Louis, MO, USA) and 50% of 0.9% NaCl (Sigma-Aldrich, St. Louis, MO, USA). The vehicle solution used the same mixture without any drug.

Saos-2 = assay: cells; assay type: cell-based, human; details: for IC50: Homo sapiens, SAOS-2, 120 h, read-out: IC50 growth inhibition
MNNG/HOS = assay: cells; assay type: cell-based; details: 120 h, read-out: IC50 growth inhibition
MG-63 = assay: cells; assay type: cell-based; details: Homo sapiens, MG-63, 120 h, read-out: IC50 growth inhibition
U2-OS = assay: cells; assay type: cell-based; details: Homo sapiens, U2OS, 120 h, read-out: IC50 growth inhibition
[3] = molecular target: T1, EGFR phosphorylation of tyrosine (Tyr) 1068 (Homo sapiens, UniProt P00533); assay: P-EGFR in tumor tissue (immunohistochemistry, Western blot); assay type: in vivo; details: tumors 3 h after last dose, 80 mg/kg, N = 4
T1 construct: Western blotting in tumor samples obtained from animals treated with ZR2002, JS61, JS84 or the vehicle; from tissue; host or cells: Saos-2 xenograft tumours grown subcutaneously in NSG mice
Experimental: (§1) In order to study the drug pharmacokinetics, 1 last dose (the 11th dose) was administered 3 h prior to sacrifice and after a break of 5 days from the previous drug administration.
(§2) At the end of the study, the mice were sacrificed, and the plasma and tumors were collected. The plasma was stored at −80 °C, and the tumor tissues were transversely cut into 2 parts: 1 was immediately frozen in liquid nitrogen and stored at −80 °C for Western blots and LC-MS analysis; the other was fixed in 4% paraformaldehyde and used for histology.
(§3) The tumors were fixed for 36 h in 4% paraformaldehyde, transferred to 70% EtOH and paraffin-embedded. Sections 4 µm thick were deparaffinized, rehydrated and incubated for 20 min at 37 °C with anti-P-EGFR (1–100, ab40815, Abcam, Cambridge, UK) or anti-P-H2AX (1–100, sc-517348, Santa Cruz Biotechnology, Dallas, TX, USA), followed by secondary Ab incubation with OmniMap anti-Rb HRP (760–4311, Roche, Basel, Switzerland) at room temperature for 16 min, followed by the detection kit ChromoMap Kit (760–4304, Roche, Basel, Switzerland), and the slides were then counterstained with hematoxylin, dehydrated, cleared and cover-slipped. The slides were digitally scanned using an Aperio scanner scope XT.
(§4) The tumor tissue samples were smashed with liquid nitrogen into a mortar, and the tumor powders were transferred to cold RIPA 1x buffer with an anti-protease and anti-phosphatase inhibitor cocktail (Roche, Basel, Switzerland) in ice for 1 h and sonicated. After centrifugation, the proteins were quantified and mixed in Laemmli buffer (Sigma-Aldrich, St. Louis, MO, USA), maintaining the same concentration.
(§5) Cell lysates or tissue lysates were loaded onto 4–20% SDS-PAGE gels (mini-protean TGx stain-free, Bio-Rad, Hercules, CA, USA) and transferred to PVDF membranes that were pre-wetted with methanol. […] The quantification of the immunoblots was performed on digitalized images using ImageLab Software 6.1 (Bio-Rad, Hercules, CA, USA). […]

ɣ-H2AX phosphorylation = assay: P-H2AX in tumor tissue (immunohistochemistry, Western blot); assay type: in vivo, human; details: tumors 3 h after last dose, 80 mg/kg, N = 4
Experimental: as §1, §2, §3, §4, §5

T1 sequence (P00533 25-1210): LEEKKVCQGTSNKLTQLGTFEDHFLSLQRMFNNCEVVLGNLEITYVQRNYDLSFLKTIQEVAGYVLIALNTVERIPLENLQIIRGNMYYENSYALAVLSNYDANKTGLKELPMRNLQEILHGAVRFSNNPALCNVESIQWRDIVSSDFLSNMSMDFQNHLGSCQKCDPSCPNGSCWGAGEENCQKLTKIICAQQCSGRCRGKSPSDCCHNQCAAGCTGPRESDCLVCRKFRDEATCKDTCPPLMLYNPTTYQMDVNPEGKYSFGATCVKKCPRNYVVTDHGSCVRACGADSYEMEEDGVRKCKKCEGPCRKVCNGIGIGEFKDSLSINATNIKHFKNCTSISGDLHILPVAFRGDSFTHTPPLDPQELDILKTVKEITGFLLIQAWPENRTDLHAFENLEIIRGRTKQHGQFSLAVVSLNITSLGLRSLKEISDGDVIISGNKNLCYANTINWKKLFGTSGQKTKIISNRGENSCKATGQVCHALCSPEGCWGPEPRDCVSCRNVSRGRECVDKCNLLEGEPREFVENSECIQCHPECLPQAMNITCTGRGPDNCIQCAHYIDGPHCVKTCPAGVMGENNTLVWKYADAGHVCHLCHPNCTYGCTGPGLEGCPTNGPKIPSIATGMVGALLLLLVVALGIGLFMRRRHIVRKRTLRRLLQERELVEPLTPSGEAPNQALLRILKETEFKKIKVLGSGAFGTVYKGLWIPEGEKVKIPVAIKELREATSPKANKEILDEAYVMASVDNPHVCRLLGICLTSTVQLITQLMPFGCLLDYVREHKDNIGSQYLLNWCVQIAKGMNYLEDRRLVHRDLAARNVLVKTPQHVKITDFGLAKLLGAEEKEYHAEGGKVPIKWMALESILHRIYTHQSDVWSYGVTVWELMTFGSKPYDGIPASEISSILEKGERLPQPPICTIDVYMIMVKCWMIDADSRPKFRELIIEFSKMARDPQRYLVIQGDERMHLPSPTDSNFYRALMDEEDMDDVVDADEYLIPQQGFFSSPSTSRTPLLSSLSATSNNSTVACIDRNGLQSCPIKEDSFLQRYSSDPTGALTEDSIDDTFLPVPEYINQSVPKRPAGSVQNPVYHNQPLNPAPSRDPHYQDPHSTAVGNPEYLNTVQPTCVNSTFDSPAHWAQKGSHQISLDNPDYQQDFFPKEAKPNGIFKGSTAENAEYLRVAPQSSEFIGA

Row | Structure (SMILES) | IC50 [1] | IC50 (KHOS/NP) | tolerance / body weight throughout treatment [2] | IC50 (Saos-2) | IC50 (MNNG/HOS) | IC50 (MG-63) | IC50 (U2-OS) | EGFR phosphorylation of Tyr 1068 in tumors vs vehicle [3] | ɣ-H2AX phosphorylation in tumors vs control (ɣ-H2AX phosphorylation) | fold more potent than JS61 ([1]; ratio of IC50 values across the panel) | fold more potent than JS84 (Saos-2)
1 | ClCCN(CCCl)c1ccc2ncnc(Nc3cccc(Br)c3)c2c1 [JS61] | 1390 to 12500 nM | 6830 ± 500 nM | no significant weight loss | 1590 ± 100 nM | 5860 ± 150 nM | 12500 ± 610 nM | 1390 ± 20 nM | detectable EGFR phosphorylation | low levels of H2AX phosphorylation | – | –
2 | CN(CCCl)c1ccc2ncnc(Nc3cccc(Br)c3)c2c1 [JS84] | 180 to 5040 nM | 1380 ± 300 nM | no significant weight loss | 250 ± 40 nM | 880 ± 430 nM | 5040 ± 980 nM | 180 ± 30 nM | detectable EGFR phosphorylation | low levels of H2AX phosphorylation | – | –
3 | ClCCNc1ccc2ncnc(Nc3cccc(Br)c3)c2c1 [ZR2002] | 80 to 450 nM | 190 ± 30 nM | no significant weight loss | 80 ± 10 nM | 310 ± 90 nM | 450 ± 80 nM | 80 ± 10 nM | reduced | enhanced in comparison with the control, even if it was not statistically significant | 17–36 fold | 7 fold
